Results published in ChEMBL document CHEMBL1159270, “Bruceosides D, E, and F, three new cytotoxic quassinoid glucosides from Brucea javanica” (1995).

How the values were obtained:
Format in all cases: functional
[1] = system: CCRF-CEM; assay: Growth inhibition of human CCRF-CEM cells
[2] = system: HL-60(TB); assay: Growth inhibition of human HL-60(TB) cells
[3] = system: K562; assay: Growth inhibition of human K562 cells
[4] = system: MOLT-4; assay: Growth inhibition of human MOLT4 cells
[5] = system: EKVX; assay: Growth inhibition of human EKVX cells
[6] = system: HOP-62; assay: Growth inhibition of human HOP62 cells
[7] = system: HOP-92; assay: Growth inhibition of human HOP92 cells
[8] = system: NCI-H226; assay: Growth inhibition of human NCI-H226 cells
[9] = system: NCI-H23; assay: Growth inhibition of human NCI-H23 cells
[10] = system: NCI-H322M; assay: Growth inhibition of human NCI-H322M cells
[11] = system: NCI-H460; assay: Growth inhibition of human NCI-H460 cells
[12] = system: NCI-H522; assay: Growth inhibition of human NCI-H522 cells
[13] = system: COLO 205; assay: Growth inhibition of human COLO205 cells
[14] = system: HCC 2998; assay: Growth inhibition of human HCC2998 cells
[15] = system: HCT-116; assay: Growth inhibition of human HCT116 cells
[16] = system: HCT-15; assay: Growth inhibition of human HCT15 cells
[17] = system: HT-29; assay: Growth inhibition of human HT-29 cells
[18] = system: KM12; assay: Growth inhibition of human KM12 cells
[19] = system: SW-620; assay: Growth inhibition of human SW620 cells
[20] = system: SF-268; assay: Growth inhibition of human SF268 cells
[21] = system: SF-539; assay: Growth inhibition of human SF539 cells
[22] = system: SNB-19; assay: Growth inhibition of human SNB19 cells
[23] = system: SNB-75; assay: Growth inhibition of human SNB75 cells
[24] = system: U-251; assay: Growth inhibition of human U251 cells
[25] = system: LOX IMVI; assay: Growth inhibition of human LOXIMVI cells
[26] = system: Malme-3M; assay: Growth inhibition of human MALME-3M cells
[27] = system: M14; assay: Growth inhibition of human M14 cells
[28] = system: SK-MEL-2; assay: Growth inhibition of human SK-MEL-2 cells
[29] = system: SK-MEL-28; assay: Growth inhibition of human SK-MEL-28 cells
[30] = system: SK-MEL-5; assay: Growth inhibition of human SK-MEL-5 cells
[31] = system: UACC-257; assay: Growth inhibition of human UACC257 cells
[32] = system: UACC-62; assay: Growth inhibition of human UACC62 cells
[33] = system: IGROV-1; assay: Growth inhibition of human IGROV1 cells
[34] = system: OVCAR-3; assay: Growth inhibition of human OVCAR-3 cells
[35] = system: OVCAR-4; assay: Growth inhibition of human OVCAR4 cells
[36] = system: OVCAR-5; assay: Growth inhibition of human OVCAR5 cells
[37] = system: OVCAR-8; assay: Growth inhibition of human OVCAR8 cells
[38] = system: SK-OV-3; assay: Growth inhibition of human SKOV3 cells
[39] = system: 786-0; assay: Growth inhibition of human 786-0 cells
[40] = system: A498; assay: Growth inhibition of human A498 cells
[41] = system: ACHN; assay: Growth inhibition of human ACHN cells
[42] = system: CAKI-1; assay: Growth inhibition of human Caki1 cells
[43] = system: RXF 393; assay: Growth inhibition of human RXF393 cells
[44] = system: SN12C; assay: Growth inhibition of human SN12C cells
[45] = system: TK-10; assay: Growth inhibition of human TK10 cells
[46] = system: UO-31; assay: Growth inhibition of human UO31 cells
[47] = system: SR; assay: Growth inhibition of human SR cells
[48] = system: A549; assay: Growth inhibition of human A549 cells
[49] = system: PC-3; assay: Growth inhibition of human PC3 cells
[50] = system: DU-145; assay: Growth inhibition of human DU145 cells
[51] = system: MCF7; assay: Growth inhibition of human MCF7 cells
[52] = Growth inhibition of human MCF7/ADR cells; conditions: NCI/ADR-RES
[53] = system: MDA-MB-231; assay: Growth inhibition of human MDA-MB-231 cells
[54] = Growth inhibition of human Hs 578T cells
[55] = system: MDA-MB-435; assay: Growth inhibition of human MDA-MB-435 cells
[56] = system: MDA-N; assay: Growth inhibition of human MDA-N cells
[57] = system: BT-549; assay: Growth inhibition of human BT549 cells
[58] = system: T47D; assay: Growth inhibition of human T47D cells

Question: What does the source list for `CC(=O)OC(C)(C)/C(C)=C/C(=O)O[C@H]1C(=O)O[C@@H]2C[C@H]3[C@H](C)C(=O)C(O[C@@H]4O[C@H](CO)[C@@H](O)[C@H](O)[C@H]4O)=C[C@]3(C)[C@H]3[C@@H](O)[C@H](O)[C@]4(C(=O)O)OC[C@]32[C@@H]14` [BRUCEOSIDE F]?
Answer: GI50 [1]: 43.7 µM; GI50 [2]: 47.9 µM; GI50 [3]: 39.8 µM; GI50 [4]: 33.9 µM; GI50 [5]: > 100 µM; GI50 [6]: 69.2 µM; GI50 [7]: 66.1 µM; GI50 [8]: 72.4 µM; GI50 [9]: > 100 µM; GI50 [10]: > 100 µM; GI50 [11]: 39.8 µM; GI50 [12]: 18.6 µM; GI50 [13]: > 100 µM; GI50 [14]: 36.3 µM; GI50 [15]: 38 µM; GI50 [16]: > 100 µM; GI50 [17]: > 100 µM; GI50 [18]: > 100 µM; GI50 [19]: > 100 µM; GI50 [20]: > 100 µM; GI50 [21]: 56.2 µM; GI50 [22]: > 100 µM; GI50 [23]: > 100 µM; GI50 [24]: > 100 µM; GI50 [25]: > 100 µM; GI50 [26]: 56.2 µM; GI50 [27]: > 100 µM; GI50 [28]: > 100 µM; GI50 [29]: > 100 µM; GI50 [30]: > 100 µM; GI50 [31]: > 100 µM; GI50 [32]: > 100 µM; GI50 [33]: > 100 µM; GI50 [34]: 25.7 µM; GI50 [35]: > 100 µM; GI50 [36]: > 100 µM; GI50 [37]: > 100 µM; GI50 [38]: > 100 µM; GI50 [39]: > 100 µM; GI50 [40]: > 100 µM; GI50 [41]: > 100 µM; GI50 [42]: > 100 µM; GI50 [43]: 37.2 µM; GI50 [44]: > 100 µM; GI50 [45]: > 100 µM; GI50 [46]: > 100 µM; GI50 [47]: 49 µM; GI50 [48]: > 100 µM; GI50 [49]: > 100 µM; GI50 [50]: > 100 µM; GI50 [51]: 27.5 µM; GI50 [52]: > 100 µM; GI50 [53]: > 100 µM; GI50 [54]: > 100 µM; GI50 [55]: > 100 µM; GI50 [56]: > 100 µM; GI50 [57]: > 100 µM; GI50 [58]: > 100 µM
